This is an account of results in patent US20250367114A1, “INHALABLE COMPOSITION FOR ENHANCING ALERTNESS AND VITALITY AND DEVICE FOR SUPPLYING THE INHALABLE COMPOSITION” (KT&G CORPORATION, priority 2024, published 2025).

For this assay, the system named is C57BL/6 mice. The assay can be described thus: general behavioral experiments (LABORAS) after oral administration of caffeine. As to conditions: for Distance (distance of movement) / Number of times (number of movements) / Speed (speed of movement) / Time (time of movement): measured for an hour. It counts as in vivo. The procedure: The experimental animals were C57BL/6 mice (male, 10 weeks old) purchased from KOATECH after receiving approval from the Institutional Animal Care and Use Committee (IACUC). The experimental animals were acclimatized for a week in the breeding room of the bio-efficacy evaluation center of KT&G (temperature 23±2° C., humidity 50±10%, light-dark cycle 12 hours) and then used in the experiments.
Caffeine was dissolved in a 0.9% saline solution and administered orally to the mice by using Zonde at a dosage of 10 ml/kg, and then general behavioral experiments were conducted. Samples of experimental examples 1 to 3 below were orally administered to the C57BL/6 mice, and then the number of movements, the speed of movement (mm/s), the distance of movement (meter), and the time of movement (sec) for an hour were measured using a LABORAS behavioral device.
Experimental example 1 was a control group, in which only 10 ml/kg of a 0.9% saline solution was orally administered. In experimental example 2, caffeine was dissolved in a 0.9% saline solution at a dose of 5 mg/kg and orally administered by using Zonde. In experimental example 3, caffeine was dissolved in a 0.9% saline solution at a dose of 30 mg/kg and orally administered by using Zonde. With respect to each of experimental examples 1 to 3, the alertness effect of caffeine was verified through general behavioral experiments, and results thereof are shown in Table 1 below.

[1] abbreviates: caffeine 5 mg/kg oral in 0.9% saline.
[2] abbreviates: caffeine 30 mg/kg oral in 0.9% saline.

As to `Cn1c(=O)c2c(ncn2C)n(C)c1=O` [Experimental example 2, caffeine], the “alertness effect (in words)” value (caffeine 5 mg/kg oral) is given as “almost no effect”. Further, under setting [1], the “Distance (distance of movement)” value is 20.48 ± 3.27 meter, the “Number of times (number of movements)” value worked out at 532.5 ± 66.33 count, the “Speed (speed of movement)” value amounted to 5.689 ± 0.91 mm/s and the “Time (time of movement)” value stood at 405.65 ± 21.89 s. Besides, the “alertness effect (in words)” value (caffeine 30 mg/kg oral) is listed as “alertness effect was observed”. Besides, under setting [2], the “Distance (distance of movement)” value was 33.59 ± 7.85 meter, the “Number of times (number of movements)” value was found to be 1034.5 ± 220.05 count, the “Speed (speed of movement)” value came to 9.33 ± 2.18 mm/s and the “Time (time of movement)” value was 884.15 ± 154.86 s.
